{
  "source": "paper PMC10545747",
  "about": "“Development of cyclopeptide inhibitors of cGAS targeting protein-DNA interaction and phase separation” (Nature Communications, 2023)",
  "key": {"[1]": {"tested_on": "THP1 cells stimulated with poly (I: C) (TLR3 and RIG-I/MDA-5 pathways)", "experiment": "qPCR of IFNB1 mRNA in THP1 cells stimulated by poly (I: C)", "type": "cell-based, human", "text": "We next evaluated the inhibitory effect of XQ2 against cGAS in murine fibroblast L929 cells, macrophage RAW264.7 cells and primary bone marrow-derived macrophages (BMDMs) from C57BL/6 mice.\n(§1) The indicated cells were stimulated with either ISD (Sangon Biotech), HSV-1 (Provided by Dr. Zhengfan Jiang), HSV60mer (Sangon Biotech), SATE-cddA[70], 2’3’-cGAMP (Invivogen, Cat# tlrl-nacga23-1), ADU-S100 (MedChemExpress, Cat# HY-12885A) or Poly(I:C) (Invivogen, Cat# tlrl-pic) after XQ2 or XQ2B treatment. Total RNA was isolated from indicated cells that incubated with the drugs for indicated time or mice tissues by using NucleoZOL reagent (MACHEREY-NAGEL) according to the manufacturer’s instructions. The quantifications of mRNA levels were carried out by real-time PCR using a PerfectStart® Uni RT&qPCR Kit (TransGen Biotech) on the QuantStudio 5 qPCR machine (Applied Biosystems). Samples were carried out in triplicate and the target CT values were normalized to GAPDH CT values. Primers of qPCR used in this study can be found in Supplementary Table S2."}, "[2]": {"tested_on": "primary human PBMCs", "experiment": "qPCR of IFNB1 and IL6 mRNA in ISD-stimulated PBMCs", "type": "cell-based", "set-up": "key to IFNB1 mRNA, qPCR, Fig. 2c / IL6 mRNA, qPCR, Fig. 2c / IFNB1 mRNA (Fig. S7f) / IL6 mRNA (Fig. S7f): relative mRNA level, target CT normalized to GAPDH CT", "settings": "10 μM", "method": "as §1"}, "[3]": {"tested_on": "macrophage RAW264.7 cells", "experiment": "qPCR of Ifnb1/Cxcl10/Il6 mRNA in RAW264.7 cells (ISD or HSV-1)", "type": "cell-based, mouse", "set-up": "key to Ifnb1 mRNA (Fig. S2c) / Cxcl10 mRNA (Fig. S2c) / Ifnb1 mRNA (Fig. S2d) / Cxcl10 mRNA (Fig. S2d) / Ifnb1 mRNA (Fig. S7g) / Cxcl10 mRNA (Fig. S7g) / Il6 mRNA (Fig. S7g): mRNA level normalized to GAPDH (relative expression)", "method": "as §1, with “S2. […]” for “S2.”\n(c) L929, p = 0.0005 (Ifnb1),\nBMDMs, p = 0.0001 (Ifnb1), p < 0.0001 (Cxcl10).\nrepresentative of three independent experiments in (a-g). (Data are presented as mean ± SD, n = 3 independent\nSource data are provided as a Source Data file."}, "[4]": {"experiment": "Cell viability (CCK-8), cytotoxicity", "settings": "human, THP1 cells", "method": "(§2) Cell viability was measured by cell counting kit-8 (TargetMol) according to the manufacturer’s instructions.\n(§3) Supplementary Fig. 2. […]\n(§4) (e-g) THP1 cells (e), L929 cells (f) and RAW264.7 cells (g) were exposed to the indicated doses of XQ2 for 48h, the cell viability was measured by CCK8 assay. Data are representative of three independent experiments in (a-g). (Data are presented as mean ± SD, n = 3 independent samples in (a-g), **p < 0.01, ***p < 0.001, ****p < 0.0001 using one-way ANOVA with Dunnett’s post hoc test).\n(§5) Source data are provided as a Source Data file. […]\n(§6) Relative viability(%) XQ2B\n(§7) Supplementary Fig. 7. […] (a) THP1 cells were exposed to the indicated doses of XQ2 or XQ2B for 48h. The cell viability was measured by CCK8 assay. […]\n(§8) Data are representative of three independent experiments with similar results in (e), or three independent experiments in (a -d, f, g) . (Data are presented as mean ± SD, n = 3 independent samples in (a-d, f, g), ns, not significant, **p < 0.01, ***p < 0.001, ****p < 0.0001 using one-way ANOV A with Dunnett’s post hoc test). Source data are provided as a Source Data file."}, "[5]": {"tested_on": "THP1 cells", "experiment": "Cell viability (CCK-8), cytotoxicity", "settings": "for Cell viability (Fig. S2e): THP1 (48h)", "method": "as §2, §3, §4, §5, §6, §7, §8"}, "[6]": {"experiment": "physchem", "method": "Supplementary Fig. 7. […] (a) THP1 cells were exposed to the indicated doses of XQ2 or XQ2B for 48h. The cell viability was measured by CCK8 assay. (b) The comparison of solubility of XQ2 and XQ2B. The maximum concentration of XQ2 or XQ2B dissolved in water was measured by a spectrophotometer at 280nm. […]\nas §8"}},
  "note": "Values joined by “and” are separate entries in the source; they are usually repeats but may differ in a detail not shown here. Equal entries are not always repeated. “Also recorded” adds a separate entry of the source. Where two headings read alike, the source gives them in different places. Square brackets hold non-standard residues; d marks the D form. Peptide text beside a SMILES is read from it.",
  "data": [
    {"smiles": "CC(C)C[C@@H]1NC(=O)[C@H](CCCNC(=N)N)NC(=O)[C@H](C(C)C)NC(=O)[C@@H]2CCCN2C(=O)[C@@H](Cc2ccccc2)NC(=O)[C@H](CC(C)C)NC(=O)[C@H](CCCNC(=N)N)NC(=O)[C@H](C(C)C)NC(=O)[C@H](C)NC(=O)[C@@H](Cc2ccccc2)NC1=O", "note": "[XQ2, Cyclo (LfAVRLfPVR)] (cyclo(L[dF]AVRL[dF]PVR))", "values": [
      {"measurement": "poly (I: C)-induced IFNB1 expression", "setting": "[1]; THP1, 10 μM", "result": "did not affect the expression of IFNΒ1 induced by poly (I: C)"},
      {"measurement": "IFNB1 mRNA, qPCR, Fig. 2b", "setting": "[1]; THP1, Poly(I:C), 10 μM", "result": "400.477 and 440.107 and 373.524"},
      {"measurement": "ISD-induced IFNB1 and IL6 expression in PBMCs", "setting": "[2]", "result": "markedly suppressed the expression of IFNB1 and IL6; also recorded: significantly inhibit the activation of cGAS induced by ISD"},
      {"measurement": "IFNB1 mRNA, qPCR, Fig. 2c", "setting": "[2]; PBMCs, ISD", "result": "362.804 and 380.938 and 448.513"},
      {"measurement": "IL6 mRNA, qPCR, Fig. 2c", "setting": "[2]; PBMCs, ISD", "result": "261.548 and 423.427 and 399.836"},
      {"measurement": "Ifnb1 and Cxcl10 expression induced by ISD and HSV-1", "setting": "[3]; RAW264.7, 10 μM", "result": "significantly inhibited the expression of Ifnb1 and its downstream gene Cxcl10"},
      {"measurement": "Cxcl10 mRNA (Fig. S2d)", "setting": "[3]; RAW264.7, HSV-1+XQ2", "result": "226.869 and 260.086 and 204.298"},
      {"measurement": "Ifnb1 mRNA (Fig. S2d)", "setting": "[3]; RAW264.7, HSV-1+XQ2", "result": "1317.92 and 1543.45 and 1644.53"},
      {"measurement": "Cxcl10 mRNA (Fig. S2c)", "setting": "[3]; RAW264.7, ISD+XQ2", "result": "1626.72 and 1806.59 and 1855.72"},
      {"measurement": "Ifnb1 mRNA (Fig. S2c)", "setting": "[3]; RAW264.7, ISD+XQ2", "result": "12350.6 and 12954.9 and 11525.9"},
      {"measurement": "Cxcl10 mRNA (Fig. S2c)", "setting": "[3]; RAW264.7, XQ2 alone", "result": "3.511 and 3.569 and 3.235"},
      {"measurement": "Cxcl10 mRNA (Fig. S2d)", "setting": "[3]; RAW264.7, XQ2 alone", "result": "3.511 and 3.569 and 3.235"},
      {"measurement": "Ifnb1 mRNA (Fig. S2c)", "setting": "[3]; RAW264.7, XQ2 alone", "result": "1.57 and 1.726 and 1.836"},
      {"measurement": "Ifnb1 mRNA (Fig. S2d)", "setting": "[3]; RAW264.7, XQ2 alone", "result": "1.57 and 1.726 and 1.836"},
      {"measurement": "viability at 48 h, 0.16 µM", "setting": "[4]; Cell viability (Fig. S2e), THP1 (48h), XQ2 0.16 μM", "result": 87.4, "unit": "%"},
      {"measurement": "viability at 48 h, 0.31 µM", "setting": "[4]; Cell viability (Fig. S2e), THP1 (48h), XQ2 0.31 μM", "result": 103, "unit": "%"},
      {"measurement": "viability at 48 h, 0.63 µM", "setting": "[4]; Cell viability (Fig. S2e), THP1 (48h), XQ2 0.63 μM", "result": 94.8, "unit": "%"},
      {"measurement": "viability at 48 h, 1.25 µM", "setting": "[4]; Cell viability (Fig. S2e), THP1 (48h), XQ2 1.25 μM", "result": 95.7, "unit": "%"},
      {"measurement": "viability at 48 h, 2.5 µM", "setting": "[4]; Cell viability (Fig. S2e), THP1 (48h), XQ2 2.5 μM", "result": 92.5, "unit": "%"},
      {"measurement": "viability at 48 h, 5 µM", "setting": "[4]; Cell viability (Fig. S2e), THP1 (48h), XQ2 5 μM", "result": 90.4, "unit": "%"},
      {"measurement": "viability at 48 h, 10 µM", "setting": "[4]; Cell viability (Fig. S2e), THP1 (48h), XQ2 10 μM", "result": 93.6, "unit": "%"},
      {"measurement": "viability at 48 h, 0.3125 µM", "setting": "[4]; Cell viability (Fig. S7a), XQ2 312.5 nM", "result": 103, "unit": "%"},
      {"measurement": "viability at 48 h, 0.625 µM", "setting": "[4]; Cell viability (Fig. S7a), XQ2 625 nM", "result": 94.8, "unit": "%"},
      {"measurement": "viability at 48 h, 1.25 µM", "setting": "[4]; Cell viability (Fig. S7a), XQ2 1250 nM", "result": 95.7, "unit": "%"},
      {"measurement": "viability at 48 h, 2.5 µM", "setting": "[4]; Cell viability (Fig. S7a), XQ2 2500 nM", "result": 92.5, "unit": "%"},
      {"measurement": "viability at 48 h, 5 µM", "setting": "[4]; Cell viability (Fig. S7a), XQ2 5000 nM", "result": 90.4, "unit": "%"},
      {"measurement": "viability at 48 h, 10 µM", "setting": "[4]; Cell viability (Fig. S7a), XQ2 10000 nM", "result": 93.6, "unit": "%"},
      {"measurement": "viability at 48 h, 20 µM", "setting": "[4]; Cell viability (Fig. S7a), XQ2 20000 nM", "result": 56.9, "unit": "%"},
      {"measurement": "viability at 48 h, 40 µM", "setting": "[4]; Cell viability (Fig. S7a), XQ2 40000 nM", "result": 4.01, "unit": "%"},
      {"measurement": "viability at 48 h, 80 µM", "setting": "[4]; Cell viability (Fig. S7a), XQ2 80000 nM", "result": 6.79, "unit": "%"},
      {"measurement": "viability at 48 h, 160 µM", "setting": "[4]; Cell viability (Fig. S7a), XQ2 160000 nM", "result": 6.84, "unit": "%"},
      {"measurement": "viability at 48 h, 320 µM", "setting": "[4]; Cell viability (Fig. S7a), XQ2 320000 nM", "result": 6.36, "unit": "%"},
      {"measurement": "Cell viability (Fig. S2e)", "setting": "[5]; XQ2 0.16 μM", "result": "87.186 and 98.2321"},
      {"measurement": "Cell viability (Fig. S2e)", "setting": "[5]; XQ2 0.31 μM", "result": "93.9161 and 92.7457"},
      {"measurement": "Cell viability (Fig. S2e)", "setting": "[5]; XQ2 0.63 μM", "result": "102.329 and 90.4779"},
      {"measurement": "Cell viability (Fig. S2e)", "setting": "[5]; XQ2 1.25 μM", "result": "94.1356 and 101.451"},
      {"measurement": "Cell viability (Fig. S2e)", "setting": "[5]; XQ2 2.5 μM", "result": "93.4772 and 103.426"},
      {"measurement": "Cell viability (Fig. S2e)", "setting": "[5]; XQ2 5 μM", "result": "89.1612 and 96.4765"},
      {"measurement": "Cell viability (Fig. S2e)", "setting": "[5]; XQ2 10 μM", "result": "102.841 and 97.9395"},
      {"measurement": "IC50", "setting": "[5]; read-out: IC50, cell viability (CCK8), Fig. S7a, THP1, 48h", "result": "24.3 ± 8.9", "unit": "µM"},
      {"measurement": "solubility", "setting": "[6]", "result": "low solubility at higher concentrations"},
      {"measurement": "solubility", "setting": "[6]; Concentration (solubility, Fig. S7b)", "result": 860, "unit": "µg/mL"}
    ]}
  ]
}
